# Measured values published in PMC7343282, “Tissue Distribution of Several Series of Cationic Surfactants in Rainbow Trout (Oncorhynchus mykiss) Following Exposure via Water” (Environmental Science & Technology, 2020).
# Read-outs that look alike come from different tables or passages of the source.
# How the values were obtained:
# [1] = tested on: rainbow trout (Oncorhynchus mykiss); assay: Contribution of tissues to fish body burden; format: in vivo; details: for % contribution to body burden, Gills / % contribution to body burden, Liver / % contribution to body burden, Mucus / % contribution to body burden, Muscle / % contribution to body burden, Skin / Share of body burden present in gills and mucus / Share of body burden in interior tissues (blood, liver, and muscle): in vivo; for Contribution of Other tissue (all apart from blood, liver, gills and skin; muscle concentration assumed) to body burden: fraction
# Description: To calculate the quantity of the test chemical in the different tissues, the amount of each tissue in the fish was estimated and multiplied by the concentration in that tissue. The test chemical quantities in the different tissues were then summed to give the body burden in each fish. The total weight of the fish and the weight of the liver and gills were available from the dissection (Table S16). For skin and mucus, the estimated outer surface area of the fish was used. We note that the distinction between mucus and skin is an operational one determined by the extraction method; mucus can be viewed as a more readily extracted fraction of the test chemical residues at the fish surface. The volume of blood was taken as 0.0495 mL g^–1 fish.[30] The remaining tissue (difference between the weight of the whole fish and the weight of liver, gills, skin, and blood) was assumed to have the concentration measured in the muscle. The contribution of the different tissues to the body burden is given for each fish in Table S17, and the average contribution across all fish is plotted in Figure 1. All of the tissues, with the exception of blood, contribute at least 10% of the body burden for at least half of the test chemicals. There is no consistent negative correlation between the fraction of chemical associated with blood, muscle, and liver (tissues where the residue originates entirely from systemic uptake) and alkyl chain length (a measure of hydrophobicity). Thus, although adsorption to fish surfaces appears to play a significant role, its contribution to body burden cannot be simply predicted from surfactant hydrophobicity. In the following, we examine uptake in individual tissues.
# [2] = tested on: rainbow trout (Oncorhynchus mykiss); assay: Surface area-normalized mucus-water and gill-water distribution coefficients; details: in vivo
# Description: For each mixture, the syringe pump was started in an aquarium containing no fish. After 16 h, to allow the concentrations to stabilize, 12 rainbow trout were added. After 7 d of exposure, the fish in the exposure aquaria as well as several unexposed (control) fish were sacrificed. Following stunning, blood was collected with a heparinized syringe from the caudal vein into a 2 mL Eppendorf tube. The fish were weighed and photographed, and the length was measured. The outer surface area of the fish was estimated from the fish weight according to O’Shea et al.[27] [drawing 1] 1
# The gill surface area was estimated from the fish weight according to the equation specific for O. mykiss from a report by Hughes,[28] taken from ref ([29]) [drawing 2] 2
# Because the mass of extracted mucus was not determined, the concentrations in mucus were normalized to the estimated fish’s total surface area (eq 1) excluding the head, which was not rinsed.
# Surface area-normalized gill–water distribution coefficients (DG–W) were calculated from the average concentrations measured in gills and water, and a calculated gill surface based on rainbow trout specific scaling factors (eq 2). […] Unlike the skin, the gills were not rinsed with methanol, so the gill samples included gill mucus.
# [3] = tested on: Salmo trutta; design: method as in REACH dossiers (European Chemicals Agency); details: ref REACH dossiers (European Chemicals Agency); cited from earlier work
# [4] = tested on: Danio rerio; details: ref REACH dossiers (European Chemicals Agency); cited from earlier work
# [5] = cited from earlier work
# [6] = cited from earlier work; remark: listed apart in the source
# [7] = tested on: bluegill fish (Lepomis macrochirus); details: cited from earlier work
# [8] = tested on: killifish; details: cited from earlier work
# [9] = secondary amines, no reference given
Compound,"% contribution to body burden, Gills [1] [%]","% contribution to body burden, Liver [1] [%]","% contribution to body burden, Mucus [1] [%]","% contribution to body burden, Muscle [1] [%]","% contribution to body burden, Skin [1] [%]",Gill-water distribution coefficient (DG-W) [2] [mLcm-2],Mucus-water distribution coefficient (DMuc-W) [2] [mL cm-2],also measured
"CCCCCCCCCC[N+](C)(C)C [Q10, N,N,N-trimethyl-1-decylammonium]",23,3,11,37,24,0.0064,0.0035,DG–W factor lower than tertiary amine of the same alkyl chain length [2]: 300; DMuc–W times lower than tertiary amine with the corresponding alkyl chain length [2]: 360
"CCCCCCCCCCCCCC[N+](C)(C)C [Q14, N,N,N-trimethyl-1-tetradecylammonium]",70,5,10,7,8,9.5,1.40,Share of body burden present in gills and mucus [1]: at least 50%; DG–W factor lower than tertiary amine of the same alkyl chain length [2]: 18; DMuc–W higher than Q10 [2]: 2.6 log units; DMuc–W times lower than tertiary amine with the corresponding alkyl chain length [2]: 37
"CCCCCCCCCCCCNC [S12, N-methyldodecylamine]",20,17,7,32,21,13.3,5.4,"Share of body burden in interior tissues (blood, liver, and muscle) [1]: more than half"
"CCCCCCCCCCCCCCCCNC [S16, N-methylhexadecylamine]",53,12,4,16,14,300,27,Share of body burden present in gills and mucus [1]: at least 50%
"CCCCCCCCCCN(C)C [T10, N,N-dimethyldecylamine]",14,18,8,38,18,1.95,1.28,"Contribution of Other tissue (all apart from blood, liver, gills and skin; muscle concentration assumed) to body burden ([1]; Fish #1): 0.54; Contribution of Other tissue (all apart from blood, liver, gills and skin; muscle concentration assumed) to body burden ([1]; Fish #2): 0.33; Contribution of Other tissue (all apart from blood, liver, gills and skin; muscle concentration assumed) to body burden ([1]; Fish #3): 0.35; Contribution of Other tissue (all apart from blood, liver, gills and skin; muscle concentration assumed) to body burden ([1]; Fish #4): 0.29; Contribution of Other tissue (all apart from blood, liver, gills and skin; muscle concentration assumed) to body burden ([1]; Fish #5): 0.38; Contribution of Other tissue (all apart from blood, liver, gills and skin; muscle concentration assumed) to body burden ([1]; Fish #6): 0.37; Contribution of Other tissue (all apart from blood, liver, gills and skin; muscle concentration assumed) to body burden ([1]; Mean): 0.38; Share of body burden in interior tissues (blood, liver, and muscle) [1]: more than half; 96h-LC50 [3]: 1.8 mg/L; 96h-LC50 [4]: 1.13 mg/L"
"CCCCCCCCCCCCCCN(C)C [T14, N,N-dimethyltetradecylamine]",34,7,11,22,24,150,51,"Contribution of Other tissue (all apart from blood, liver, gills and skin; muscle concentration assumed) to body burden ([1]; Fish #1): 0.22; Contribution of Other tissue (all apart from blood, liver, gills and skin; muscle concentration assumed) to body burden ([1]; Fish #2): 0.21; Contribution of Other tissue (all apart from blood, liver, gills and skin; muscle concentration assumed) to body burden ([1]; Fish #3): 0.24; Contribution of Other tissue (all apart from blood, liver, gills and skin; muscle concentration assumed) to body burden ([1]; Fish #4): 0.21; Contribution of Other tissue (all apart from blood, liver, gills and skin; muscle concentration assumed) to body burden ([1]; Fish #5): 0.20; Contribution of Other tissue (all apart from blood, liver, gills and skin; muscle concentration assumed) to body burden ([1]; Fish #6): 0.24; Contribution of Other tissue (all apart from blood, liver, gills and skin; muscle concentration assumed) to body burden ([1]; Mean): 0.22; 96h-LC50 [3]: 0.18 mg/L; 96h-LC50 [4]: 0.35 mg/L"
"CN(C)CCC=C1c2ccccc2CCc2ccccc21 [amitriptyline, reference compound]",–,–,–,–,–,–,–,pKa [5]: […]; log DMW [6]: 3.9
CCCCCCCCCC[N+](C)(C)CCCCCCCCCC [didecyldimethylammonium chloride],–,–,–,–,–,–,–,"bioconcentration factor (BCF) ([7]; 14C-labeled): 81 L kg^–1; 14C residues in the skin, times higher than in edible tissues [7]: 2–6"
COc1ccc([C@@H]2Sc3ccccc3N(CCN(C)C)C(=O)[C@@H]2OC(C)=O)cc1 [diltiazem],–,–,–,–,–,–,–,"Vd, plasma concentration based [8]: 0.19–0.28 L kg^–1"
"CNCCC(Oc1ccc(C(F)(F)F)cc1)c1ccccc1 (centres unmarked) [fluoxetine, reference compound]",–,–,–,–,–,–,–,"pKa [5, 9]: > 9.5"
"CN[C@H]1CC[C@@H](c2ccc(Cl)c(Cl)c2)c2ccccc21 [sertraline, reference compound]",–,–,–,–,–,–,–,"pKa [5, 9]: > 9.5; log DMW ([6]; membrane–water distribution coefficient): 4.3"
